# From the supplement of paper PMC10307832
# Columns and labels:
# Assay in all cases: relative viability (nuclei count vs DMSO), 5 days (fraction); higher = more cells survive
# BAM7 + AZD7762 = compound: CCOC1=CC=CC=C1N=NC2=C(NN(C2=O)C3=NC(=CS3)C4=CC=CC=C4)C [BAM7] + NC(=O)Nc1cc(-c2cccc(F)c2)sc1C(=O)N[C@H]1CCCNC1 [AZD7762] (partner 0.2 µM)
# How it was run: (§1)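 The day after seeding in 1536-well plates, lung cancer cell lines were treated by pin tool with a single drug, or with a fixed anchor-drug dose together with five library-drug doses (not always all listed) in √10 steps. After 5 days, a combined fix-and-stain solution (final 0.05% Triton X-100, 1% formaldehyde, 1 ug/ml Hoechst) was added. Nuclei counted on 4× images gave relative viability as treated counts over vehicle counts, reported as the median of duplicate plates.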
# BAM7 + Tozasertib = compound: CCOC1=CC=CC=C1N=NC2=C(NN(C2=O)C3=NC(=CS3)C4=CC=CC=C4)C [BAM7] + Cc1cc(Nc2cc(N3CCN(C)CC3)nc(Sc3ccc(NC(=O)C4CC4)cc3)n2)n[nH]1 [Tozasertib] (partner 0.1 µM)
# How it was run: as §1
# BAM7 + Pemetrexed = compound: CCOC1=CC=CC=C1N=NC2=C(NN(C2=O)C3=NC(=CS3)C4=CC=CC=C4)C [BAM7] + Nc1nc2[nH]cc(CCc3ccc(C(=O)N[C@@H](CCC(=O)O)C(=O)O)cc3)c2c(=O)[nH]1 [Pemetrexed] (partner 0.2 µM)
# How it was run: as §1
# [1] = compound: CCn1c(-c2nonc2N)nc2c(C#CC(C)(C)O)ncc(OC[C@H]3CCCNC3)c21 + N=C(N)NC(=N)NCCc1ccccc1 [Phenformin] (partner 250 µM)
# How it was run: as §1
Cell Line,relative viability (BAM7 + AZD7762; first compound 0.5 µM),relative viability (BAM7 + AZD7762; first compound 5 µM),relative viability (BAM7 + AZD7762; first compound 15.81 µM),relative viability (BAM7 + AZD7762; first compound 50 µM),relative viability (BAM7 + Tozasertib; first compound 0.5 µM),relative viability (BAM7 + Tozasertib; first compound 5 µM),relative viability (BAM7 + Tozasertib; first compound 15.81 µM),relative viability (BAM7 + Tozasertib; first compound 50 µM),relative viability (BAM7 + Pemetrexed; first compound 0.5 µM),relative viability (BAM7 + Pemetrexed; first compound 5 µM),relative viability (BAM7 + Pemetrexed; first compound 15.81 µM),relative viability (BAM7 + Pemetrexed; first compound 50 µM),relative viability ([1]; first compound 0.01 µM),relative viability ([1]; first compound 0.03162 µM),relative viability ([1]; first compound 0.1 µM),relative viability ([1]; first compound 0.3162 µM),relative viability ([1]; first compound 1 µM)
201T,0.705,0.688,0.715,0.678,0.737,0.805,0.673,0.726,0.299,0.324,0.327,0.313,0.455,0.438,0.437,0.435,0.431
A549,,,,,,,,,,,,,0.197,0.212,0.164,0.17,0.154
A-427,0.743,0.848,0.802,0.737,0.202,0.199,0.216,0.202,1.02,0.935,0.93,1.04,0.315,0.387,0.263,0.339,0.326
ABC-1,0.755,1.29,0.863,0.783,0.164,0.162,0.183,0.227,,,,,0.244,0.204,0.236,0.228,0.255
BEN,0.689,0.802,0.939,0.74,0.559,0.442,0.59,0.423,0.74,0.88,0.98,1,0.276,0.292,0.28,0.297,0.287
CAL-12T,0.589,0.714,0.557,0.609,0.311,0.257,0.236,0.24,1.31,1.27,0.987,1.31,0.506,0.579,0.588,0.554,0.469
COR-L23,,,,,0.177,0.197,0.133,0.183,0.209,0.182,0.193,0.206,0.444,0.399,0.422,0.373,0.389
COR-L 105,,,,,0.359,0.435,0.357,0.359,1.02,1.31,1.01,1.15,0.407,0.516,0.468,0.417,0.463
ChaGo-K-1,0.831,0.891,0.843,0.808,0.226,0.229,0.197,0.262,0.256,0.257,0.249,0.272,0.462,0.508,0.502,0.438,0.469
EKVX,0.871,0.617,0.668,0.704,0.424,0.36,0.183,0.333,0.425,0.409,0.349,0.377,0.232,0.231,0.217,0.217,0.195
EMC-BAC-2,1.15,0.999,1.22,1.24,0.302,0.291,0.289,0.272,0.439,0.458,0.474,0.452,0.487,0.491,0.578,0.502,0.52
EPLC-272H,0.23,0.301,0.226,0.289,0.252,,0.275,0.334,0.328,0.371,0.401,0.322,0.275,0.333,0.32,0.291,0.255
H3255,0.831,0.838,0.73,0.847,0.652,0.757,0.376,0.497,0.578,0.543,0.548,0.545,0.403,0.406,0.342,0.338,0.329
HARA,0.21,0.269,0.356,0.195,0.117,0.116,0.093,0.0898,0.228,0.244,0.222,0.292,0.361,0.445,0.426,0.451,0.495
HCC-15,1.29,1.24,1.06,1.21,0.471,0.493,0.346,0.284,0.225,0.216,0.22,0.227,0.439,0.502,0.456,0.395,0.404
HCC-44,1.03,0.964,1.05,0.983,0.94,0.711,0.785,0.878,0.648,0.642,0.635,0.63,0.19,0.183,0.194,0.184,0.189
HCC-78,0.635,1.4,0.702,0.627,0.428,0.371,0.446,0.393,0.929,0.913,0.963,0.863,0.655,0.755,0.711,0.588,0.67
HCC-366,0.173,0.19,0.191,0.186,0.0637,0.0775,0.062,0.0627,0.107,0.117,0.125,0.115,0.573,0.606,0.637,0.62,0.617
HCC-827,0.199,0.201,0.284,0.182,0.405,0.433,0.395,0.388,0.27,0.25,0.28,0.247,0.395,0.37,0.388,0.402,0.402
HOP-62,0.648,0.917,0.733,0.342,0.417,0.413,0.337,0.308,0.269,0.356,0.328,0.371,0.662,0.687,0.635,0.649,0.687
